Columns and labels:
bedstraw = test: Test B pre/postemergence bedstraw; assay type: in vivo, Galium aparine; details: Preemergence; for Bedstraw plant response rating: scale of 0 to 10 where 0 is no effect and 10 is complete control
How it was run: (§1)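 Test chemicals in a non-phytotoxic solvent mixture with surfactant were sprayed preemergence onto planted seeds and postemergence onto plants 2 to 18 cm tall (1- to 4-leaf stage). After twelve to sixteen days in a greenhouse, injury was visually rated against untreated controls from 0 (no effect) to 10 (complete control).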

velvetleaf = test: Test B pre/postemergence velvetleaf; assay type: in vivo, Abutilon theophrasti
How it was run: as §1

wheat = test: Test B pre/postemergence wheat; assay type: in vivo, Triticum aestivum
How it was run: as §1

blackgrass = test: Test B pre/postemergence blackgrass; assay type: in vivo, Alopecurus myosuroides
How it was run: as §1

purple nutsedge = test: Test B pre/postemergence purple nutsedge; assay type: in vivo, Cyperus rotundus
How it was run: as §1

corn = test: Test B pre/postemergence corn; assay type: in vivo, Zea mays
How it was run: as §1

surinam grass = test: Test B pre/postemergence surinam grass; assay type: in vivo, Brachiaria decumbens
How it was run: as §1

rice = test: Test B flood test rice; assay type: in vivo, Oryza sativa; details: Pre-emergence
How it was run: (§2)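 Plants were grown to the 2-leaf stage before treatment with test chemical, then held in a greenhouse for twelve to sixteen days. Injury was visually rated against untreated controls on a 0–10 scale, where 0 is no effect and 10 is complete control.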

bamyardgrass = test: Test B flood test barnyardgrass; assay type: in vivo, Echinochloa crus-galli; details: Pre-emergence
How it was run: as §2

pigweed = test: Test B pre/postemergence pigweed; assay type: in vivo, Amaranthus retroflexus
How it was run: as §1

duck salad = test: Test B flood test duck salad; assay type: in vivo, Heteranthera limosa; details: Pre-emergence
How it was run: as §2

smallflower flatsedge = test: Test B flood test smallflower flatsedge; assay type: in vivo, Cyperus difformis; details: Pre-emergence
How it was run: as §2

rape = test: Test B pre/postemergence rape; assay type: in vivo, Brassica napus
How it was run: as §1

cocklebur = test: Test B pre/postemergence cocklebur; assay type: in vivo, Xanthium strumarium
How it was run: as §1

wild oat = test: Test B pre/postemergence wild oat; assay type: in vivo, Avena fatua
How it was run: as §1

morningglory = test: Test B pre/postemergence morningglory; assay type: in vivo, Ipomoea hederacea
How it was run: as §1

[1] = Rate 1000 g/ha, scale 0 to 10 (0 no effect, 10 complete control)
[2] = Postemergence, Rate 125 g/ha, scale 0 to 10, 0 is no effect, 10 is complete control
[3] = Postemergence, Rate 250 g/ha, scale 0 to 10, 0 is no effect, 10 is complete control
[4] = Postemergence, Rate 1000 g/ha, scale 0 to 10 (0 no effect, 10 complete control)
[5] = Preemergence, Rate 250 g/ha, scale of 0 to 10 where 0 is no effect and 10 is complete control
[6] = Preemergence, Rate 500 g/ha, scale of 0 to 10 where 0 is no effect and 10 is complete control
[7] = Rate 500 g/ha, Postemergence, scale 0 to 10, 0 no effect, 10 complete control
[8] = Rate 1000 g/ha, Preemergence, scale 0 to 10 (0 no effect, 10 complete control)
[9] = Rate 125 g/ha, flood test species, scale 0 to 10 where 0 is no effect and 10 is complete control
[10] = Rate 250 g/ha, flood-test species, scale 0 to 10, 0 is no effect, 10 is complete control
[11] = Rate 500 g/ha, flood test species, scale 0 to 10 (0 no effect, 10 complete control)

CCOC(=O)C(C)N(C(=O)n1oc(=O)n(C)c1=O)c1ccc(F)cc1 (centres unmarked) [Compound 365]
0: Bedstraw plant response rating (0 to 10 scale) (bedstraw; Rate 125 g/ha) | Bedstraw plant response rating (bedstraw; Rate 250 g/ha) | Bedstraw plant response rating (bedstraw; Rate 500 g/ha) | Plant response rating, Bedstraw (bedstraw; [1]) | Plant response rating, Velvetleaf (velvetleaf; [2]) | Plant response rating, Velvetleaf (velvetleaf; [3]) | Velvetleaf plant response rating (velvetleaf; [4]) | Velvetleaf plant response rating (0 to 10 scale) (velvetleaf; Preemergence, Rate 125 g/ha) | Velvetleaf plant response rating (velvetleaf; [5]) | Velvetleaf plant response rating (velvetleaf; [6]) | Plant response rating, Velvetleaf (velvetleaf; [7]) | Plant response rating, Velvetleaf (velvetleaf; [8]) | Plant response rating, Wheat (wheat; [2]) | Plant response rating, Wheat (wheat; [3]) | Wheat plant response rating (wheat; [4]) | Wheat plant response rating (0 to 10 scale) (wheat; Preemergence, Rate 125 g/ha) | Wheat plant response rating (wheat; [5]) | Wheat plant response rating (wheat; [6]) | Plant response rating, Wheat (wheat; [7]) | Plant response rating, Wheat (wheat; [8]) | Plant response rating, Blackgrass (blackgrass; [2]) | Plant response rating, Blackgrass (blackgrass; [3]) | Blackgrass plant response rating (blackgrass; [4]) | Blackgrass plant response rating (0 to 10 scale) (blackgrass; Preemergence, Rate 125 g/ha) | Blackgrass plant response rating (blackgrass; [5]) | Blackgrass plant response rating (blackgrass; [6]) | Plant response rating, Blackgrass (blackgrass; [7]) | Plant response rating, Blackgrass (blackgrass; [8]) | Plant response rating, Nutsedge (purple nutsedge; [2]) | Plant response rating, Nutsedge (purple nutsedge; [3]) | Nutsedge plant response rating (purple nutsedge; [4]) | Nutsedge plant response rating (purple nutsedge; [5]) | Nutsedge plant response rating (purple nutsedge; [6]) | Plant response rating, Nutsedge (purple nutsedge; [7]) | Plant response rating, Nutsedge (purple nutsedge; [8]) | Plant response rating, Corn (corn; [2]) | Plant response rating, Corn (corn; [3]) | Corn plant response rating (corn; [4]) | Corn plant response rating (0 to 10 scale) (corn; Preemergence, Rate 125 g/ha) | Corn plant response rating (corn; [5]) | Corn plant response rating (corn; [6]) | Plant response rating, Corn (corn; [7]) | Plant response rating, Corn (corn; [8]) | Plant response rating, B. signalgrass (surinam grass; [2]) | Plant response rating, B. signalgrass (surinam grass; [3]) | B. signalgrass plant response rating (surinam grass; [4]) | B. signalgrass plant response rating (0 to 10 scale, 0 is no effect, 10 is complete control) (surinam grass; Preemergence, Rate 125 g/ha) | B. signalgrass plant response rating (surinam grass; [5]) | B. signalgrass plant response rating (surinam grass; [6]) | Plant response rating, B. signalgrass (surinam grass; [7]) | Plant response rating, B. signalgrass (surinam grass; [8]) | Rice plant response rating (rice; [1]) | Rice plant response rating (rice; [9]) | Rice plant response rating (rice; [10]) | Rice plant response rating (rice; [11]) | Barnyardgrass plant response rating (bamyardgrass; [1]) | Barnyardgrass plant response rating (bamyardgrass; [9]) | Barnyardgrass plant response rating (bamyardgrass; [10]) | Barnyardgrass plant response rating (bamyardgrass; [11]) | Plant response rating, Redroot pigweed (pigweed; [2]) | Plant response rating, Redroot pigweed (pigweed; [3]) | Redroot pigweed plant response rating (pigweed; [4]) | Redroot pigweed plant response rating (0 to 10 scale) (pigweed; Preemergence, Rate 125 g/ha) | Redroot pigweed plant response rating (pigweed; [5]) | Redroot pigweed plant response rating (pigweed; [6]) | Plant response rating, Redroot pigweed (pigweed; [7]) | Plant response rating, Redroot pigweed (pigweed; [8]) | Ducksalad plant response rating (duck salad; [1]) | Ducksalad plant response rating (duck salad; [9]) | Ducksalad plant response rating (duck salad; [10]) | Ducksalad plant response rating (duck salad; [11]) | S. Flatsedge plant response rating (smallflower flatsedge; [1]) | S. Flatsedge plant response rating (smallflower flatsedge; [9]) | S. Flatsedge plant response rating (smallflower flatsedge; [10]) | S. Flatsedge plant response rating (smallflower flatsedge; [11]) | Plant response rating, Rape (rape; [2]) | Plant response rating, Rape (rape; [3]) | Rape plant response rating (rape; [4]) | Rape plant response rating (0 to 10 scale) (rape; Preemergence, Rate 125 g/ha) | Rape plant response rating (rape; [5]) | Rape plant response rating (rape; [6]) | Plant response rating, Rape (rape; [7]) | Plant response rating, Rape (rape; [8]) | Plant response rating, Cocklebur (cocklebur; [2]) | Plant response rating, Cocklebur (cocklebur; [3]) | Cocklebur plant response rating (cocklebur; [4]) | Cocklebur plant response rating (0 to 10 scale) (cocklebur; Preemergence, Rate 125 g/ha) | Cocklebur plant response rating (cocklebur; [5]) | Cocklebur plant response rating (cocklebur; [6]) | Plant response rating, Cocklebur (cocklebur; [7]) | Plant response rating, Cocklebur (cocklebur; [8]) | Plant response rating, Wild oats (wild oat; [2]) | Plant response rating, Wild oats (wild oat; [3]) | Wild oats plant response rating (wild oat; [4]) | Wild oats plant response rating (0 to 10 scale) (wild oat; Preemergence, Rate 125 g/ha) | Wild oats plant response rating (wild oat; [5]) | Wild oats plant response rating (wild oat; [6]) | Plant response rating, Wild oats (wild oat; [7]) | Plant response rating, Wild oats (wild oat; [8]) | Plant response rating, Morningglory (morningglory; [2]) | Plant response rating, Morningglory (morningglory; [3]) | Morningglory plant response rating (morningglory; [4]) | Morningglory plant response rating (0 to 10 scale) (morningglory; Preemergence, Rate 125 g/ha) | Morningglory plant response rating (morningglory; [5]) | Morningglory plant response rating (morningglory; [6]) | Plant response rating, Morningglory (morningglory; [7]) | Plant response rating, Morningglory (morningglory; [8])
